Data as given in patent publication US10045978B2 (AB SCIENCE, priority 2010, dated 2018).

Test system: patients with indolent forms of mastocytosis with handicap, D816V absent in at least one infiltrated organ
Assay: Example 1 phase 2a study, response assessment
Type: in vivo, human
Set-up: Hamilton rating Δ Mean ± SD / QLQ-C30 Symptom Δ Mean ± SD / QLQ-C30 Global Health Δ Mean ± SD / AFIRMM Δ Mean ± SD / Hamilton rating ΔMean ± SD / QLQC30 Symptom ΔMean ± SD / QLQC30 Global Health ΔMean ± SD / AFIRMM ΔMean ± SD: scale not given here
Method: Eligible patients were aged >18 years, had previously documented indolent systemic, smoldering systemic or cutaneous mastocytosis as per the WHO classification with associated disability as the result of mast cell released mediators and had not responded to usual symptomatic treatments for more the 6 months. […] A single occurrence of this criterion was deemed sufficient for inclusion and so no systematic examination of multiple organs was carried out specifically for this study.
Patients were classified as having a handicap if after appropriate symptomatic treatments they fulfilled at least one of the following a priori criteria: number of flushes/day ≥1; pruritus score ≥6; number of stools ≥4/day; micturition frequency ≥8/day; Hamilton rating for depression ≥10; or EORTC quality-of-life questionnaire (QLQ-C30) symptom score, functional score, and global health status of >0. Patients were excluded if they experienced inadequate organ function defined via blood test levels, or an Eastern Cooperative Oncology Group performance status >2. Other exclusion criteria included: life expectancy <6 months, severe or uncontrolled medical disease, and patients who were pregnant or nursing.
In accordance to the AFIRMM study (Hermine O, et al., 2008, PLoS ONE. 3:e2266), evaluation of treatment response was based upon the change of clinical symptoms associated with a patient's handicaps at week 12 (W12) relative to baseline. Primary endpoints were daily frequency of flushes; pruritus score; and Hamilton rating for depression, as well as, daily stool and micturition frequencies; QLQ-C30 global health status, functional, and symptom scores. […] For those patients entering the extension phase, assessments were performed every 4 weeks for the first 3 months of extension, and every 12 weeks thereafter. Secondary endpoints included the W12 assessment of AFIRMM score (a validated questionnaire assessing the self-perceived severity of mastocytosis) (Hermine O, et al., 2008, PLoS ONE. 3:e2266); overall patient assessment (OPA) score; tryptase levels; and change in organ mast cell infiltration. Determination of D816V mutation and serum tryptase levels was conducted following procedures described previously (Hermine O, et al., 2008, PLoS ONE. 3:e2266). Overall clinical response analysis at W12 defined a responder as having an improvement of ≥50% in baseline handicap of a key response endpoint (Hamilton rating, flushes, or pruritus) without deterioration or emergence of handicap. Any patient with deterioration of ≥50% in any handicap, and/or with emergence of a new handicap with an increase of ≥50% from baseline was considered as worsening. Any patient who discontinued the study before W12 was considered a non responder. Discrimination between dose regimens was investigated by analyses of the ‘time to first response’, according to the initial dosage, and ‘dose at time of first response’ in key response endpoints.
Response analysis was performed on subgroups of the ITT population according to a patient's handicap at baseline and for whom response was evaluated at W12; referred to hereafter as the handicap-related population. No data imputation was implemented. The per protocol (PP) population was defined as a subset of a given handicap-related population, which in addition had presented no major protocol deviations. Summary response data are presented using descriptive statistics with mean improvement compared to baseline in each handicap cohort, regardless of disease classification. The appropriate Wilcoxon or Fisher tests were used for group comparison of baseline disease, demographic characteristics between dose level groups and response relative to baseline. Subpopulation analysis was also conducted according to initial c-Kit status.

[1] = W12, Group 1 (no confirmed D816V)
[2] = W12, Group 2 (mixed c-Kit status)
[3] = W12, handicap-related population

## Cc1ccc(NC(=O)c2ccc(CN3CCN(C)CC3)cc2)cc1Nc1nc(-c2cccnc2)cs1 [masitinib, 4-(4-methylpiperazin-1-ylmethyl)-N-[4-methyl-3-(4-pyridin-3ylthiazol-2-ylamino)phenyl]benzamide]
1/14 evaluable patients
  skin mast cell infiltration: good partial response (≥50% reduction): 7%
1/20 patient at one time point
  OPA: worsening of health status: 5%
6/14 evaluable patients
  skin mast cell infiltration: partial response (1 to 49% reduction): 43%
7/14 evaluable patients
  skin mast cell infiltration: no change: 50%
9/20 patients
  OPA score improvement of at least one point: 45%
48/79 events
  first response events at lower dose level of 4.5 mg/kg/day: 60%
76/79 events
  first response events occurring at dose ≤6 mg/kg/day: 96%
Total, all doses
  first response events: AFIRMM score: 10
  first response events: Flush: 17
  first response events: Hamilton: 10
  first response events: Micturition: 1
  first response events: OPA score: 7
  first response events: Pruritus: 11
  first response events: QLQ30 Functional: 5
  first response events: QLQ30 Global: 6
  first response events: QLQ30 Symptom: 5
  first response events: Stool: 7
  first response events: Total events: 79
W12
  QLQ-C30 functional score improvement: 39%±81
  QLQ-C30 global health status improvement: 51%±108
  QLQ-C30 symptom score improvement: 2.5%±69
  clinical response rate: Hamilton rating: 50%
  clinical response rate: flushes: 60%
  clinical response rate: pruritus: 25%
W12, 3/20 evaluable patients
  OPA: impaired health status at baseline reporting none or minimal impairment: 15%
W12, All
  AFIRMM Δ Mean ± SD: −61.5 ± 49.6
  Flushes per day Δ Mean ± SD: −1.7 ± 1.5
  Hamilton rating Δ Mean ± SD: −5.1 ± 4.4
  Micturitions per day Δ Mean ± SD: −3.1 ± 3.7
  Pruritus Δ Mean ± SD: −3.0 ± 3.4
  QLQ-C30 Functional Δ Mean ± SD: 8.7 ± 18.8
  QLQ-C30 Global Health Δ Mean ± SD: 12.5 ± 24.7
  QLQ-C30 Symptom Δ Mean ± SD: −6.1 ± 13.6
  Stools per day Δ Mean ± SD: −1.9 ± 3.6
[1]
  AFIRMM Δ Mean ± SD: −63.5 ± 52.9
  Flushes per day Δ Mean ± SD: −2.0 ± 1.6
  Hamilton rating Δ Mean ± SD: −4.6 ± 4.3
  Micturitions per day Δ Mean ± SD: −3.0 ± 2.8
  Pruritus Δ Mean ± SD: −3.5 ± 3.6
  QLQ-C30 Functional Δ Mean ± SD: 8.7 ± 21.0
  QLQ-C30 Global Health Δ Mean ± SD: 14.1 ± 27.0
  QLQ-C30 Symptom Δ Mean ± SD: −5.4 ± 14.7
  Stools per day Δ Mean ± SD: −2.0 ± 4.0
[2]
  AFIRMM Δ Mean ± SD: −53.5 ± 38.5
  Flushes per day Δ Mean ± SD: −0.8 ± 0.5
  Hamilton rating Δ Mean ± SD: −10.0
  Micturitions per day Δ Mean ± SD: −3.5 ± 7.8
  Pruritus Δ Mean ± SD: −1.0 ± 2.2
  QLQ-C30 Functional Δ Mean ± SD: 8.6 ± 4.8
  QLQ-C30 Global Health Δ Mean ± SD: 6.3 ± 12.5
  QLQ-C30 Symptom Δ Mean ± SD: −9.5 ± 6.2
  Stools per day Δ Mean ± SD: −1.5 ± 2.1
W12, ITT
  overall clinical response: 14/25
W12, PP patients with elevated tryptase (>15 ng/mL) at baseline (N=5)
  tryptase level, mean reduction: 23%
W12, PP population
  micturition frequency improvement: 39%±14
  stool frequency improvement: 44%±63
W12, evaluable patients (N=20)
  AFIRMM global score improvement: 40%±27
[3]
  micturition frequency improvement: 23%±30
  stool frequency improvement: 29%±58
W12, one patient of 15 evaluable, 7% at baseline
  bone marrow mast cell infiltration: 1%
At 1.5 mg/kg/day
  first response events: Cumulative Frequency: 0%
  first response events: Total events: 0
At 3.0 mg/kg/day
  first response events: AFIRMM score: 4
  first response events: Cumulative Frequency: 46%
  first response events: Flush: 9
  first response events: Hamilton: 4
  first response events: OPA score: 2
  first response events: Pruritus: 5
  first response events: QLQ30 Functional: 3
  first response events: QLQ30 Global: 2
  first response events: QLQ30 Symptom: 2
  first response events: Stool: 5
  first response events: Total events: 36
At 4.5 mg/kg/day
  first response events: AFIRMM score: 1
  first response events: Cumulative Frequency: 61%
  first response events: Flush: 3
  first response events: Hamilton: 2
  first response events: Pruritus: 2
  first response events: QLQ30 Functional: 1
  first response events: QLQ30 Global: 2
  first response events: QLQ30 Symptom: 1
  first response events: Total events: 12
